Data as given in PMC4019635 (PLoS ONE, 2014).
pEC50, pIC50: −log10 of the molar value.

Tests used:
RDLbdI/V = RDLbdI/V (Drosophila melanogaster, UniProt P25123, I283V); assay: cell-based
RDLbdI/VA^301S = RDLbdI/VA^301S (Drosophila melanogaster, UniProt P25123, A301S/I283V); assay: cell-based
Chain of RDLbdI/VA^301S (P25123 45-606 I283V/A301S): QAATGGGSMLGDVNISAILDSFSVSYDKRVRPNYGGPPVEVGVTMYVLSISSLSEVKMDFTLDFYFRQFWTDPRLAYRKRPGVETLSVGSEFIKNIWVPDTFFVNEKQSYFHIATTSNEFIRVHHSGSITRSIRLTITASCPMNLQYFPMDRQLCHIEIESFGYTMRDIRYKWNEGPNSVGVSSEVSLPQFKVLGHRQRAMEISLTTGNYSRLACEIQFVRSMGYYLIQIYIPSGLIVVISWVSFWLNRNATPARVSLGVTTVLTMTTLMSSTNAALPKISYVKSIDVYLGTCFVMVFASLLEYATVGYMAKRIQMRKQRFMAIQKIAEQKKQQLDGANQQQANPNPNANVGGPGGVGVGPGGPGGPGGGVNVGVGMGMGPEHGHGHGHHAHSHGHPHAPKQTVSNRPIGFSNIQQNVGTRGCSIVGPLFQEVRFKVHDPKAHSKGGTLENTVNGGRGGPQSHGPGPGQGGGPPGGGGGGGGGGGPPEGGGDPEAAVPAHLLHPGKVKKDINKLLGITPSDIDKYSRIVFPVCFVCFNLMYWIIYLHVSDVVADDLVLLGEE

Chain of RDLbdI/V (P25123 45-606 I283V): as the sequence (P25123 45-606 I283V/A301S) above, with S257A counted along it

Compound	pEC50 (RDLbdI/V)	pIC50 (RDLbdI/V)	pIC50 (RDLbdI/VA^301S)
NCc1cc(=O)[nH]o1 [muscimol]	4.02	–	–
CC[C@H](C)[C@H]1O[C@]2(CC[C@@H]1C)C[C@@H]1C[C@@H](C/C=C(\C)[C@@H](O[C@H]3C[C@H](OC)[C@@H](O[C@H]4C[C@H](OC)[C@@H](O)[C@H](C)O4)[C@H](C)O3)[C@@H](C)/C=C/C=C3\CO[C@@H]4[C@H](O)C(C)=C[C@@H](C(=O)O1)[C@]34O)O2 [IVM, ivermectin]	–	6.33	5.92
NCCC(=O)O [β-alanine]	2.51	–	–
NC/C=C/C(=O)O [TACA, trans-4-aminocrotonic acid]	3.58	–	–
